Measured values taken from the NIST ThermoML archive (doi:10.1021/je900124n).
Where “and” joins values, the source holds several entries; their conditions need not be identical. Equal values may be shown once.

Details: Fluid (supercritical or subcritical phases), Buoyancy - hydrostatic balance with magnetic suspension - two sinkers

CCC [propane]
Details | mass density
400 K, 11790 kPa | 357.33 kg/m3
400 K, 11791 kPa | 357.335 kg/m3 [middle of 4 runs]
400 K, 15926 kPa | 390.231 kg/m3 [middle of 6 runs]
400 K, 15927 kPa | 390.233 kg/m3
400 K, 17448 kPa | 398.971 kg/m3
400 K, 17449 kPa | 398.975 kg/m3
400 K, 17450 kPa | 398.984 kg/m3 and 398.981 kg/m3 and 398.978 kg/m3
400 K, 29918 kPa | 445.478 kg/m3
400 K, 29922 kPa | 445.491 kg/m3
400 K, 29927 kPa | 445.504 kg/m3
400 K, 29932 kPa | 445.516 kg/m3
400 K, 29938 kPa | 445.533 kg/m3
400 K, 35836 kPa | 460.067 kg/m3
400 K, 35844 kPa | 460.086 kg/m3
400 K, 35852 kPa | 460.105 kg/m3
400 K, 35860 kPa | 460.123 kg/m3
400 K, 35868 kPa | 460.142 kg/m3
400.01 K, 3901.8 kPa | 73.2154 kg/m3
400.01 K, 3902 kPa | 73.2198 kg/m3
400.01 K, 10112 kPa | 336.233 kg/m3 and 336.235 kg/m3 and 336.236 kg/m3
420 K, 352.46 kPa | 4.5346 kg/m3 and 4.5345 kg/m3 and 4.5347 kg/m3
420 K, 352.47 kPa | 4.5348 kg/m3
420 K, 629.66 kPa | 8.229 kg/m3
420 K, 629.67 kPa | 8.2291 kg/m3
420 K, 990.94 kPa | 13.2257 kg/m3
420 K, 991.11 kPa | 13.2302 kg/m3
420 K, 992.11 kPa | 13.2437 kg/m3
420 K, 993.37 kPa | 13.2618 kg/m3
420 K, 994.27 kPa | 13.2745 kg/m3
420 K, 1638.8 kPa | 22.7735 kg/m3 and 22.7726 kg/m3
420 K, 1639 kPa | 22.7748 kg/m3
420 K, 1639.4 kPa | 22.7815 kg/m3 and 22.7817 kg/m3
420 K, 2549.6 kPa | 37.6977 kg/m3
420 K, 2549.8 kPa | 37.6995 kg/m3 and 37.7007 kg/m3 and 37.7006 kg/m3
420 K, 3591.6 kPa | 57.6483 kg/m3
420 K, 3591.8 kPa | 57.649 kg/m3
420 K, 3592 kPa | 57.6554 kg/m3 and 57.6545 kg/m3
420 K, 3592.3 kPa | 57.6606 kg/m3
420 K, 4243.9 kPa | 72.25 kg/m3
420 K, 4244 kPa | 72.2514 kg/m3
420 K, 5253.6 kPa | 99.376 kg/m3 and 99.3762 kg/m3
420 K, 5253.7 kPa | 99.3774 kg/m3 and 99.3766 kg/m3 and 99.3783 kg/m3
420 K, 6605.8 kPa | 147.752 kg/m3
420 K, 6605.9 kPa | 147.756 kg/m3 and 147.757 kg/m3
420 K, 6606 kPa | 147.761 kg/m3 and 147.757 kg/m3
420 K, 6612.9 kPa | 148.072 kg/m3
420 K, 6613 kPa | 148.069 kg/m3
420 K, 6613.1 kPa | 148.07 kg/m3 and 148.073 kg/m3
420 K, 6613.2 kPa | 148.071 kg/m3
420 K, 6780.5 kPa | 155.128 kg/m3 and 155.129 kg/m3
420 K, 6780.6 kPa | 155.129 kg/m3 and 155.128 kg/m3
420 K, 7709.3 kPa | 196.595 kg/m3
420 K, 7709.5 kPa | 196.603 kg/m3
420 K, 7709.6 kPa | 196.603 kg/m3
420 K, 7709.7 kPa | 196.608 kg/m3 and 196.605 kg/m3 and 196.607 kg/m3
420 K, 7709.8 kPa | 196.607 kg/m3
420 K, 7709.9 kPa | 196.61 kg/m3
420 K, 8228.3 kPa | 219.041 kg/m3
420 K, 8228.4 kPa | 219.041 kg/m3 and 219.043 kg/m3
420 K, 8228.5 kPa | 219.044 kg/m3 and 219.042 kg/m3 and 219.043 kg/m3
420 K, 8228.6 kPa | 219.042 kg/m3 and 219.043 kg/m3
420 K, 8848 kPa | 242.768 kg/m3 and 242.766 kg/m3 and 242.77 kg/m3
420 K, 8848.1 kPa | 242.767 kg/m3
420 K, 8848.2 kPa | 242.772 kg/m3 and 242.768 kg/m3
420 K, 10126 kPa | 279.933 kg/m3 and 279.935 kg/m3
420 K, 10127 kPa | 279.933 kg/m3 and 279.936 kg/m3 and 279.935 kg/m3
420 K, 13593 kPa | 335.538 kg/m3 [middle of 4 runs]
420 K, 20930 kPa | 389.39 kg/m3
420 K, 20931 kPa | 389.391 kg/m3 and 389.393 kg/m3
420.01 K, 629.66 kPa | 8.2291 kg/m3
420.01 K, 629.67 kPa | 8.229 kg/m3
420.01 K, 4243.9 kPa | 72.2481 kg/m3 and 72.2491 kg/m3 and 72.2487 kg/m3
420.01 K, 4244 kPa | 72.2505 kg/m3 and 72.2532 kg/m3 and 72.2519 kg/m3
420.01 K, 6606 kPa | 147.759 kg/m3
420.01 K, 6606.4 kPa | 147.771 kg/m3
420.01 K, 13593 kPa | 335.538 kg/m3 and 335.537 kg/m3
420.01 K, 20931 kPa | 389.392 kg/m3 and 389.394 kg/m3
420.01 K, 20932 kPa | 389.393 kg/m3
440 K, 368.32 kPa | 4.5138 kg/m3 and 4.514 kg/m3 and 4.5139 kg/m3
440 K, 658.93 kPa | 8.1892 kg/m3
440 K, 658.95 kPa | 8.1897 kg/m3
440 K, 1032.5 kPa | 13.0703 kg/m3 and 13.0712 kg/m3
440 K, 1032.8 kPa | 13.0744 kg/m3
440 K, 1733.1 kPa | 22.7483 kg/m3
440 K, 1733.2 kPa | 22.75 kg/m3 and 22.7499 kg/m3 and 22.7504 kg/m3
440 K, 1733.4 kPa | 22.752 kg/m3
440 K, 2721.5 kPa | 37.7309 kg/m3
440 K, 2721.7 kPa | 37.7344 kg/m3
440 K, 2721.8 kPa | 37.7372 kg/m3
440 K, 2721.9 kPa | 37.7372 kg/m3
440 K, 2722.1 kPa | 37.7402 kg/m3
440 K, 3865 kPa | 57.5204 kg/m3
440 K, 3865.3 kPa | 57.5255 kg/m3
440 K, 3865.4 kPa | 57.5267 kg/m3
440 K, 3865.5 kPa | 57.5266 kg/m3
440 K, 3865.7 kPa | 57.532 kg/m3
440 K, 4613.1 kPa | 72.2413 kg/m3 [middle of 4 runs]
440 K, 5803.9 kPa | 99.3306 kg/m3 and 99.3318 kg/m3
440 K, 5804 kPa | 99.3333 kg/m3 and 99.3338 kg/m3
440 K, 7526.8 kPa | 147.61 kg/m3 and 147.611 kg/m3
440 K, 7535.9 kPa | 147.904 kg/m3 and 147.903 kg/m3
440 K, 7536 kPa | 147.904 kg/m3
440 K, 7762.5 kPa | 154.944 kg/m3
440 K, 7762.6 kPa | 154.945 kg/m3 and 154.944 kg/m3
440 K, 9826.6 kPa | 218.701 kg/m3 and 218.702 kg/m3 and 218.7 kg/m3
440 K, 9826.7 kPa | 218.702 kg/m3 and 218.7 kg/m3 and 218.701 kg/m3
440.01 K, 658.93 kPa | 8.1888 kg/m3
440.01 K, 658.95 kPa | 8.1894 kg/m3 and 8.1895 kg/m3
440.01 K, 1032.5 kPa | 13.0692 kg/m3
440.01 K, 1032.8 kPa | 13.0752 kg/m3
440.01 K, 4613.1 kPa | 72.2397 kg/m3 and 72.2408 kg/m3 and 72.2337 kg/m3
440.01 K, 7526.8 kPa | 147.613 kg/m3 and 147.61 kg/m3 and 147.611 kg/m3
440.01 K, 7526.9 kPa | 147.613 kg/m3 and 147.612 kg/m3
460 K, 384.07 kPa | 4.4943 kg/m3 [middle of 5 runs]
460 K, 687.74 kPa | 8.1494 kg/m3
